Where two headings read alike, the source gives them in different places.
What was measured:
[1] = biological target: T1, PKN1 (Homo sapiens, UniProt Q16512); experiment: PKN1 kinase inhibition, off-chip mobility shift assay; type: biochemical; parameters: Full-length, FLAG-tagged human PKN1, PKN2 and PKN3 were expressed in mammalian HEK-293 cells; host or cells: HEK-293 (transient transfection, pcDNA4/TO)
[2] = system: PKN2; parameters: method as in PMID 17850214, PMID 10998351; settings: ref [29],[30], cited from earlier work
[3] = system: RIP2; settings: read-out: IC50 RIP2; panel of over 70 protein kinases; ref [29]; cited from earlier work
[4] = system: CK1δ; settings: read-out: IC50 CK1δ; panel of over 70 protein kinases; ref [29]; cited from earlier work
[5] = biological target: T2, PKN3 (Homo sapiens, UniProt Q6P5Z2); experiment: PKN3 kinase inhibition, off-chip mobility shift assay; type: biochemical; parameters: Full-length, FLAG-tagged human PKN1, PKN2 and PKN3 were expressed in mammalian HEK-293 cells
T2 sequence (Q6P5Z2 whole entry): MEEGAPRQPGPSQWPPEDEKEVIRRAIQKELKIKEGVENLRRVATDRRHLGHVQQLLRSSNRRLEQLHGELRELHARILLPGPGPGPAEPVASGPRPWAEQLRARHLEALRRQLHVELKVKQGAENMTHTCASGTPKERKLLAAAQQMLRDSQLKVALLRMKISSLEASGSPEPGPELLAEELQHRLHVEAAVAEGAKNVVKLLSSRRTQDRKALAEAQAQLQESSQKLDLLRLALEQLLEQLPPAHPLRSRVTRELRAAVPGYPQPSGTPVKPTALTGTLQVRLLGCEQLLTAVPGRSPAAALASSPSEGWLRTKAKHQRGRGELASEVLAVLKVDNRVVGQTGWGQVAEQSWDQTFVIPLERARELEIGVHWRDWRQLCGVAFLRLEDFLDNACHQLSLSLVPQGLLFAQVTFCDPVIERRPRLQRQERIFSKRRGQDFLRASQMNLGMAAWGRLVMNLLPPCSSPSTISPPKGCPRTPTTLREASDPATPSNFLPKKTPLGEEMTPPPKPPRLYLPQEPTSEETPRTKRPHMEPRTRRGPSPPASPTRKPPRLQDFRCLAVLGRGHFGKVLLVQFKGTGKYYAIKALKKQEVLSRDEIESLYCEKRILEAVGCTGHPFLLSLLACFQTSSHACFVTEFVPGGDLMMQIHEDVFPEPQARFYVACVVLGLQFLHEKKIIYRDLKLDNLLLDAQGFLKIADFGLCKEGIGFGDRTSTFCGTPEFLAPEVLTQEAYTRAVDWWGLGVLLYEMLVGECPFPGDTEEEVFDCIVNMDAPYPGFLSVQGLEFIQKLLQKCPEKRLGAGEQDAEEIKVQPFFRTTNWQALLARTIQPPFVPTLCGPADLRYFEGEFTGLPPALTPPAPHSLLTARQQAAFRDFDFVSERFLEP

[6] = system: Lck; settings: read-out: IC50 Lck; panel of over 70 protein kinases; ref [29]; cited from earlier work
[7] = system: Src; settings: read-out: IC50 Src; panel of over 70 protein kinases; ref [29]; cited from earlier work
[8] = system: CSK; settings: read-out: IC50 CSK; panel of over 70 protein kinases; ref [29]; cited from earlier work
[9] = biological target: T2, PKN3; experiment: Bisubstrate steady-state kinetic analysis of PKN3 in the presence of arachidonic acid
[10] = biological target: T3, PKN2 (Homo sapiens, UniProt Q16513); experiment: Bisubstrate steady-state kinetic analysis of PKN2 in the presence of arachidonic acid
T3 sequence (Q16513 whole entry): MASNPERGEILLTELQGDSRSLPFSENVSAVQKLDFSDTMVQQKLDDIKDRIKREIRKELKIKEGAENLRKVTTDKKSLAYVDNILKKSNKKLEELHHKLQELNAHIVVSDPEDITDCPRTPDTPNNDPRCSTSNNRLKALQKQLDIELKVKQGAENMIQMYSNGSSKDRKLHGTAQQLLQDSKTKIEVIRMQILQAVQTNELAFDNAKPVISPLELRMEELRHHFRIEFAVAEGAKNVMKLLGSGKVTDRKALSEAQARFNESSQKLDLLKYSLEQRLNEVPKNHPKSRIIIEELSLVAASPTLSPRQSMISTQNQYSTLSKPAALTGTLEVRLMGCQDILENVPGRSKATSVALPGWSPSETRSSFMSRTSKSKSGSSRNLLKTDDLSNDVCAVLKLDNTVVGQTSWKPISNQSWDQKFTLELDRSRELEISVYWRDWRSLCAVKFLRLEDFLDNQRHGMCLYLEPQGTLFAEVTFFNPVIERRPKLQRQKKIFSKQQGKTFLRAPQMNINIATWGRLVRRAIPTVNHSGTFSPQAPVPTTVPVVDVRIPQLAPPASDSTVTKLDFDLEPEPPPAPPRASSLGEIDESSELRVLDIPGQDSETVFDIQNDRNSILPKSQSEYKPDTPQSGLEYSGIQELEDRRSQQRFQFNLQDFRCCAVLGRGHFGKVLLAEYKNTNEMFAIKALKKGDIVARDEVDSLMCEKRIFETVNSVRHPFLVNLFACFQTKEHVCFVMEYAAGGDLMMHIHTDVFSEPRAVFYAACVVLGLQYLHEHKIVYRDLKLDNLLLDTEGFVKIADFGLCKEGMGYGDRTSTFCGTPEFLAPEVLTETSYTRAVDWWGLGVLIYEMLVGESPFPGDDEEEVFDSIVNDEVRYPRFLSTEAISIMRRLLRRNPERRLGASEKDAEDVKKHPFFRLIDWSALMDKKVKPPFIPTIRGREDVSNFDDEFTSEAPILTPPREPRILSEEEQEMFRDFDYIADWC

[11] = biological target: T3, PKN2; experiment: Lipid activation of PKN2 kinase activity, off-chip mobility shift assay; type: biochemical; parameters: Full-length, FLAG-tagged human PKN1, PKN2 and PKN3 were expressed in mammalian HEK-293 cells; host or cells: HEK-293 (transient transfection, pcDNA4/TO)
Experimental: (§1) Lipids were supplied as a solid powders, ethanol, or chloroform solutions. All solids were dissolved directly into assay buffer and briefly water bath sonicated at room temperature for 10 min. Lipids supplied as solutions in organic solvent were dried under a gentle stream of nitrogen, resuspended in assay buffer, and similarly sonicated. All lipids were prepared fresh daily.
(§2) The activity of all PKN proteins was monitored through the use of a highly sensitive off-chip mobility shift assay utilizing a LabChip EZ Reader II instrument (Caliper Life Sciences/PerkinElmer); this assay format has been described elsewhere. Kinase activity was monitored through the phosphorylation of a 5-FAM-labelled PKN substrate peptide found through Pfizer in-house optimization efforts and derived from the amino acid sequence of GSK3α (accession no. AAH51865.1) with the following sequence: 5-FAM-C6-[…]-NH2. The likely site of phosphorylation is underlined, as determined through comparison with the published phosphorylation consensus sequence for PKN1 and PKN3 substrates. Reaction buffer contained 25 mM Tris, pH 8.0, 5 mM MgCl2, 0.002% CHAPS and 2 mM DTT, with indicated protein, ATP and peptide concentrations. Peptide concentration was adjusted according to purity and peptide content. For inhibition studies, the inhibitor was pre-incubated with enzyme for 15 min at room temperature. All reactions were initiated with ATP and conducted at room temperature (~22°C). Reactions were terminated by the addition of EDTA, pH 8.0, at a final concentration of 25 mM. All reaction rates were determined to be linear with respect to time and enzyme concentration where no more than 20% of peptide substrate had been converted to product. Aliquots of each reaction were transferred in duplicate to a 384-well plate and analysed on a LabChip EZ Reader II with separation buffer containing 100 mM Hepes, pH 7.5, 0.015% Brij-35, 1 mM EDTA, 0.1% CR3 coating reagent, 1×CR8 coating reagent and 5% DMSO, with the following settings: downstream voltage: −500 V, upstream voltage: −2300 V, base pressure: −0.5 psi; screen pressure: −1.7 psi. […]
(§3) Figure 2 PKN responses to lipid activators in biochemical assays Lipids were prepared as described under the Experimental section, and kinase activity of PKN isoforms was measured using off-chip mobility shift assay described in the Methods section. Each lipid was titrated in the presence of 1 nM, 5 nM and 3 nM PKN1–3, respectively, 3 μM peptide and 500 μM ATP. vi is the initial rate at each concentration of lipid activator and vo is the initial rate in the absence of lipid.

[12] = biological target: T1, PKN1; experiment: Lipid activation of PKN1 kinase activity, off-chip mobility shift assay; type: biochemical; parameters: Full-length, FLAG-tagged human PKN1, PKN2 and PKN3 were expressed in mammalian HEK-293 cells; host or cells: HEK-293 (transient transfection, pcDNA4/TO); settings: saturating ATP (500 μM), 3 μM peptide, 1 nM PKN1; for PKN1 Maximal fold activation: increase in initial rate
Experimental: as §1, §2, §3

[13] = biological target: T2, PKN3; experiment: Lipid activation of PKN3 kinase activity, off-chip mobility shift assay; type: biochemical; parameters: Full-length, FLAG-tagged human PKN1, PKN2 and PKN3 were expressed in mammalian HEK-293 cells
Experimental: as §1
The activity of all PKN proteins was monitored through the use of a highly sensitive off-chip mobility shift assay utilizing a LabChip EZ Reader II instrument (Caliper Life Sciences/PerkinElmer); this assay format has been described elsewhere. Kinase activity was monitored through the phosphorylation of a 5-FAM-labelled PKN substrate peptide found through Pfizer in-house optimization efforts and derived from the amino acid sequence of GSK3α (accession no. AAH51865.1) with the following sequence: 5-FAM-C6-[…]-NH2. The likely site of phosphorylation is underlined, as determined through comparison with the published phosphorylation consensus sequence for PKN1 and PKN3 substrates. Reaction buffer contained 25 mM Tris, pH 8.0, 5 mM MgCl2, 0.002% CHAPS and 2 mM DTT, with indicated protein, ATP and peptide concentrations. Peptide concentration was adjusted according to purity and peptide content. For inhibition studies, the inhibitor was pre-incubated with enzyme for 15 min at room temperature. All reactions were initiated with ATP and conducted at room temperature (~22°C). Reactions were terminated by the addition of EDTA, pH 8.0, at a final concentration of 25 mM. All reaction rates were determined to be linear with respect to time and enzyme concentration where no more than 20% of peptide substrate had been converted to product. Aliquots of each reaction were transferred in duplicate to a 384-well plate and analysed on a LabChip EZ Reader II with separation buffer containing 100 mM Hepes, pH 7.5, 0.015% Brij-35, 1 mM EDTA, 0.1% CR3 coating reagent, 1×CR8 coating reagent and 5% DMSO, with the following settings: downstream voltage: −500 V, upstream voltage: −2300 V, base pressure: −0.5 psi; screen pressure: −1.7 psi.
Ki values for representative inhibitors were determined by fitting initial reaction velocities to eqn (2) for competitive inhibition using the method of non-linear least-squares using GraphPad Prism. Turnover number (kcat) was calculated by normalizing Vmax values for enzyme concentration.
as §3

[14] = biological target: T1, PKN1; experiment: Bisubstrate steady-state kinetic analysis of PKN1 in the presence of arachidonic acid
[15] = 100 μM vs 0 μM arachidonic acid

T1 sequence (Q16512 whole entry): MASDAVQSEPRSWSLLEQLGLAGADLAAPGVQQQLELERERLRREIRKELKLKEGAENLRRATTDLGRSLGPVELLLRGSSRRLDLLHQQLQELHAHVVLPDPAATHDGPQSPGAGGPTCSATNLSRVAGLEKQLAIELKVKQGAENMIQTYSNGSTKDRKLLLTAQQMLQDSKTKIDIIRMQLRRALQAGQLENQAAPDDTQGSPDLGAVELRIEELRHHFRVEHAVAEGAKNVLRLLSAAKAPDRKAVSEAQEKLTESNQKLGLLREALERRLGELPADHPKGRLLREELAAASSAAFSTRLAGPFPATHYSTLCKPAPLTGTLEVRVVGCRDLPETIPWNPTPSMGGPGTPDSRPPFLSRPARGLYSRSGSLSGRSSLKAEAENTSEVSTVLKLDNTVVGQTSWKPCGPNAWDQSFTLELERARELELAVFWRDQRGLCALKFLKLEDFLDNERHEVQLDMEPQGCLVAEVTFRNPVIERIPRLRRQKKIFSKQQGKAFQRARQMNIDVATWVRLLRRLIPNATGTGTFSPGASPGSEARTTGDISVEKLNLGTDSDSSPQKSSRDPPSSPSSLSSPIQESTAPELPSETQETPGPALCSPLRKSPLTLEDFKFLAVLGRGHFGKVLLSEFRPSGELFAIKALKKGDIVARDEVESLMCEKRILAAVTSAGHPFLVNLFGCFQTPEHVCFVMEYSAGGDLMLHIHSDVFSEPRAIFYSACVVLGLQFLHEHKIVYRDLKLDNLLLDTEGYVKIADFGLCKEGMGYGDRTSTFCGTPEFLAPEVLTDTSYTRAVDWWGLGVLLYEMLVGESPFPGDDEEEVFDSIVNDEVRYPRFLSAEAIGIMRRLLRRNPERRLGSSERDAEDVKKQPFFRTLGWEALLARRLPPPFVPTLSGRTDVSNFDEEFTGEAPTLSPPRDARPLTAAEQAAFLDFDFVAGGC

Compound: C[C@@H](N)[C@H]1CC[C@H](C(=O)Nc2ccncc2)CC1 [Compound 7, Y27632]
- Ki ([1]; absence of lipids, fit to competitive inhibition, ±S.D., n=2, read-out: PKN1, Ki): 700 ± 200 nM

Compound: Cc1ccc(-c2nn(C(C)(C)C)c3ncnc(N)c23)cc1 [Compound 8, PP1]
- IC50 [3]: 26 nM
- IC50 [4]: 170 nM
- Ki [5]: 1.3 ± 0.1 nM
- Ki [1]: > 5000 nM
- IC50 [8]: 640 nM
- PKN2 remaining activity ([2]; at 1 μM): 84%

Compound: CCCCC/C=C\C/C=C\C/C=C\C/C=C\CCCC(=O)O [Arachidonic Acid]
- Kia of PKN3 (equilibrium dissociation constant of ATP) ([9]; 5 μM arachidonic acid): 14 ± 3 µM
- kcat of PKN3 ([9]; 5 μM arachidonic acid): 1.1 ± 0.1 s⁻¹
- reduction of ATP KM for PKN3 ([9]; 5 μM vs 0 μM arachidonic acid): 3 fold
- effect on kcat for PKN3 ([9]; arachidonic acid at 5 μM): no effect
- decrease in KM,Pep of PKN3 ([9]; arachidonic acid at 5 μM vs 0 μM): 4 fold
- Kia of PKN2 (equilibrium dissociation constant of ATP) ([10]; 100 μM arachidonic acid): 2 ± 1 µM
- kcat of PKN2 ([10]; 100 μM arachidonic acid): 0.9 ± 0.1 s⁻¹
- increase in catalytic efficiency (kcat/KM,Pep) of PKN2 [10, 15]: 12 fold
- increase in kcat for PKN2 [10, 15]: 9 fold
- increase in kcat/KM,ATP of PKN2 [10, 15]: 45 fold
- reduction of ATP KM for PKN2 [10, 15]: 6 fold
- effect on PKN2 kinase activity ([11]; in words, saturating ATP): increased
- PKN2 Maximal fold activation ([11]; increase in initial rate, saturating ATP (500 μM), 3 μM peptide, 5 nM PKN2): 7 fold
- EC50 ([11]; lipid activator, saturating ATP (500 μM), 3 μM peptide, 5 nM PKN2): 9000 ± 1000 nM
- PKN1 Maximal fold activation [12]: 16 fold
- PKN1 Maximal fold activation ([12]; listed as arachidonic acid): 10–16 fold
- EC50 ([12]; lipid activator): 11000 ± 1000 nM
- effect on PKN3 kinase activity ([13]; higher concentrations of arachidonic acid (above 5 μM)): significantly inhibited
- PKN3 Maximal fold activation ([13]; increase in initial rate, saturating ATP (500 μM), 3 μM peptide, 3 nM PKN3): <2 fold
- effect on PKN3 kinase activity ([13]; relatively low (5 μM) concentration of arachidonic acid): slightly stimulated
- Kia of PKN1 (equilibrium dissociation constant of ATP) ([14]; 100 μM arachidonic acid): 19 ± 10 µM
- kcat of PKN1 ([14]; 100 μM arachidonic acid): 13 ± 6 s⁻¹
- effect on ATP KM for PKN1 [14, 15]: relatively unaffected
- increase in catalytic efficiency (kcat/KM,Pep) of PKN1 [14, 15]: 32 fold
- increase in kcat for PKN1 [14, 15]: 18 fold

— PMC3958129, “Enzyme kinetics and distinct modulation of the protein kinase N family of kinases by lipid activators and small molecule inhibitors” (Bioscience Reports, 2014)
